{"source": "patent US8445409B2", "about": "“Use of 5-benzyloxymethyl-1,2-isoxazoline derivatives as a herbicide” (Moghu Research Center Ltd., priority 2007, dated 2013)", "key": {"Rice": {"system": "Rice", "test": "Upland pot test, pre-/post-emergence spray, visual rating", "format": "in vivo, rice (ORYSA)", "details": "for Visual measurement: Crops, Rice: 2 weeks after spray, 0-10 scale (10=completely killed)", "excerpt": "(§1) To a rectangular plastic pot having a surface area of 300 cm^2, mixed soils including blend bed soil (Boonong, Horticultural Bed Soil No. 3) and sandy loam soil were filled (mixing ratio, 1:1). Seeds of the eight different types of weeds including gramineous weed such as barnyardgrass, large crabgrass, green foxtail, fall panicum, and broadleaf weed such as common cocklebur, velvetleaf, Indian joint-vetch, and morningglory were sown. To the other pot containing the same soil mixture, seeds of the five different types of crops including corn, soybean, cotton, wheat and rice were sown. Pots were kept in a greenhouse of which temperature was maintained at 25˜30° C. (day) or 15˜25° C. (night), and regularly watered.\n(§2) After fourteen days and when the crops and the weeds reached their three-leaf stage, the other set of a crop pot and a weed pot were prepared by the same method as described above. Then, “test substance” was sprayed thereto. In this case, spray treatment to the plants after they have grown for two weeks corresponded to post-emergence treatment while spray treatment to the seeds right after the sowing corresponded to pre-emergence treatment. Spray was carried out by using a track sprayer (R&D Sprayer, USA) equipped with a Teejet 8002 nozzle (Spraying Systems Co., USA). Spray volume was adjusted to 300 L/ha. The spray solution was prepared by dissolving the “test substance” in acetone and adding the same volume of 0.2% (v/v) Tween 20 aqueous solution. Dosage of the test substance was 500, 250, 125, 62.5 or 31.3 g/ha. Two weeks after the spray of the test substance, efficacy and phytotoxic effect to the crops and the weeds were visually measured based on a 0 to 10 scale (0: no efficacy, 10: completely killed)."}, "Large crabgrass": {"system": "Large crabgrass", "test": "Upland pot test, pre-/post-emergence spray, visual rating", "format": "in vivo, large crabgrass (DIGSA)", "details": "2 weeks after spray, 0-10 scale (10=completely killed)", "excerpt": "as §1, §2"}, "Annual bluegrass": {"system": "Annual bluegrass", "test": "Herbicidal activity at different growth stages, fresh weight suppression", "format": "in vivo", "details": "for Suppression ratio relative to the biomass of the untreated group: Annual bluegrass 1 leaf / Suppression ratio relative to the biomass of the untreated group: Annual bluegrass 2 leaf / Suppression ratio relative to the biomass of the untreated group: Annual bluegrass 3 leaf / Suppression ratio relative to the biomass of the untreated group: Annual bluegrass 4 leaf / Suppression ratio relative to the biomass of the untreated group: Annual bluegrass PRE: fresh weight two weeks after treatment", "protocol": "To a cup pot having a surface area of 100 cm^2 wherein mixed soils including blend bed soil (Boonong, Horticultural Bed Soil No. 3) and sandy loam soil were filled (mixing ratio, 1:1), seeds of large crabgrass and annual bluegrass were sown consecutively at an one week interval. The pots were moistened by sub-irrigation, and kept in a greenhouse maintained at 25˜30° C. (day) or 15˜25° C. (night). The said weeds were grown to various growth stages from pre-emergence to the four-leaf stage. […] Spray volume was adjusted to 2,000 L/ha. The method to spray of the test substance and prepare spray solutions were the same as described above. The reference herbicide was used after it was diluted with 0.2% (v/v) Tween 20 aqueous solution. The test was conducted in a randomized block design with three replicates. Two weeks after the treatment, plant parts remained above the pot soil surface were cut and the fresh weight was weighed. Results are given by a suppression ratio relative to the biomass that was obtained from the untreated group (see, Table 3)."}, "[1]": {"system": "gramineous weeds such as barnyardgrass, green foxtail, large crabgrass and fall panicum", "test": "Upland pot test, gramineous weeds as a group", "format": "in vivo", "excerpt": "as §1, §2"}, "turfgrasses": {"system": "turfgrasses", "test": "Example 3-1, turfgrasses as a group", "format": "in vivo", "details": "2 kg/ha or below", "excerpt": "Commercially available sod mats of zoysiagrass and bentgrass, Kentucky bluegrass, and perennial ryegrass were purchased. After cutting each turf sod mat in a size of 10 cm×20 cm, it was transplanted to a rectangular plastic pot having a surface area of 300 cm^2 wherein mixed soils including blend of a bed soil (Boonong, Horticultural Nursery Soil No. 3) and sandy loam soil were filled (mixing ratio, 1:1). After transplanting, the grass was mowed (0.5˜1.0 cm in height) once a week, and kept for one month in a greenhouse maintained at 25˜30° C. (day) or 15˜25° C. (night). Then three strips of 1 cm width were removed by excision with a scissor. The open space was filled with a new soil, and seeds of large crabgrass, annual bluegrass, or goosegrass were sown. The pots were kept in a greenhouse. When the said weeds were grown up to the 3 leaf stage, another set was prepared in the same method. The first set represented post-emergence (POST) and the second set represented pre-emergence (PRE) stages of the weeds (large crabgrass, annual bluegrass, goosegrass). Then the test compound was applied at 0.25, 0.5. 1.0, 2.0, and 4.0 kg/ha. […] Four weeks after the spray of the test substance, phytotoxicity to the turfgrass and herbicidal activity to the said weeds were visually evaluated based on 0 to 100 scale (0: no phytotoxic effect, 100: completely killed). […]"}, "[2]": {"details": "post-emergence foliar spray at three leaf stage, 31.2 g/ha"}, "[3]": {"details": "post-emergence foliar spray at three leaf stage, 62.5 g/ha"}, "[4]": {"details": "post-emergence foliar spray at three leaf stage, 125 g/ha"}, "[5]": {"details": "post-emergence foliar spray at three leaf stage, 250 g/ha"}, "[6]": {"details": "post-emergence foliar spray at three leaf stage, 500 g/ha"}, "[7]": {"details": "pre-emergence soil treatment, 31.2 g/ha"}, "[8]": {"details": "pre-emergence soil treatment, 62.5 g/ha"}, "[9]": {"details": "pre-emergence soil treatment, 125 g/ha"}, "[10]": {"details": "pre-emergence soil treatment, 250 g/ha"}, "[11]": {"details": "pre-emergence soil treatment, 500 g/ha"}}, "note": "Entries after “also recorded” stand apart in the source; their conditions may differ.", "data": [{"smiles": "Cc1ccsc1C1=NOC(C)(COCc2c(F)cccc2F)C1", "note": "(stereo not shown) [test substance, 5-(2,6-difluorobenzyl)oxymethyl-5-methyl-3-(4-methylthiophen-5-yl)-1,2-isoxazoline]", "values": [{"measurement": "Visual measurement: Crops, Rice", "setting": "Rice; [2]", "result": 0}, {"measurement": "Visual measurement: Crops, Rice", "setting": "Rice; [3]", "result": 0}, {"measurement": "Visual measurement: Crops, Rice", "setting": "Rice; [4]", "result": 0}, {"measurement": "Visual measurement: Crops, Rice", "setting": "Rice; [5]", "result": 0}, {"measurement": "Visual measurement: Crops, Rice", "setting": "Rice; [6]", "result": 0}, {"measurement": "Safety to rice (in words)", "setting": "Rice; post-emergence treatment", "result": "safe"}, {"measurement": "Visual measurement: Crops, Rice", "setting": "Rice; [7]", "result": 0}, {"measurement": "Visual measurement: Crops, Rice", "setting": "Rice; [8]", "result": 0}, {"measurement": "Visual measurement: Crops, Rice", "setting": "Rice; [9]", "result": 0}, {"measurement": "Visual measurement: Crops, Rice", "setting": "Rice; [10]", "result": 0}, {"measurement": "Visual measurement: Crops, Rice", "setting": "Rice; [11]", "result": 0}, {"measurement": "Visual measurement: Gramineous weed, Large crabgrass", "setting": "Large crabgrass; [2]", "result": 1}, {"measurement": "Visual measurement: Gramineous weed, Large crabgrass", "setting": "Large crabgrass; [3]", "result": 3}, {"measurement": "Visual measurement: Gramineous weed, Large crabgrass", "setting": "Large crabgrass; [4]", "result": 5}, {"measurement": "Visual measurement: Gramineous weed, Large crabgrass", "setting": "Large crabgrass; [5]", "result": 6}, {"measurement": "Visual measurement: Gramineous weed, Large crabgrass", "setting": "Large crabgrass; [6]", "result": 9}, {"measurement": "Visual measurement: Gramineous weed, Large crabgrass", "setting": "Large crabgrass; [7]", "result": 1}, {"measurement": "Visual measurement: Gramineous weed, Large crabgrass", "setting": "Large crabgrass; [8]", "result": 9}, {"measurement": "Visual measurement: Gramineous weed, Large crabgrass", "setting": "Large crabgrass; [9]", "result": 9}, {"measurement": "Visual measurement: Gramineous weed, Large crabgrass", "setting": "Large crabgrass; [10]", "result": 10}, {"measurement": "Visual measurement: Gramineous weed, Large crabgrass", "setting": "Large crabgrass; [11]", "result": 10}, {"measurement": "Suppression ratio relative to the biomass of the untreated group: Annual bluegrass 1 leaf", "setting": "Annual bluegrass; 1 kg/ha", "result": 97, "unit": "%"}, {"measurement": "Suppression ratio relative to the biomass of the untreated group: Annual bluegrass 2 leaf", "setting": "Annual bluegrass; 1 kg/ha", "result": 93, "unit": "%"}, {"measurement": "Suppression ratio relative to the biomass of the untreated group: Annual bluegrass 3 leaf", "setting": "Annual bluegrass; 1 kg/ha", "result": 66, "unit": "%"}, {"measurement": "Suppression ratio relative to the biomass of the untreated group: Annual bluegrass 4 leaf", "setting": "Annual bluegrass; 1 kg/ha", "result": 55, "unit": "%"}, {"measurement": "Suppression ratio relative to the biomass of the untreated group: Annual bluegrass PRE", "setting": "Annual bluegrass; 1 kg/ha", "result": 100, "unit": "%"}, {"measurement": "Suppression ratio relative to the biomass of the untreated group: Annual bluegrass 1 leaf", "setting": "Annual bluegrass; 2 kg/ha", "result": 99, "unit": "%"}, {"measurement": "Suppression ratio relative to the biomass of the untreated group: Annual bluegrass 2 leaf", "setting": "Annual bluegrass; 2 kg/ha", "result": 95, "unit": "%"}, {"measurement": "Suppression ratio relative to the biomass of the untreated group: Annual bluegrass 3 leaf", "setting": "Annual bluegrass; 2 kg/ha", "result": 69, "unit": "%"}, {"measurement": "Suppression ratio relative to the biomass of the untreated group: Annual bluegrass 4 leaf", "setting": "Annual bluegrass; 2 kg/ha", "result": 60, "unit": "%"}, {"measurement": "Suppression ratio relative to the biomass of the untreated group: Annual bluegrass PRE", "setting": "Annual bluegrass; 2 kg/ha", "result": 100, "unit": "%"}, {"measurement": "Suppression ratio relative to the biomass of the untreated group: Annual bluegrass 1 leaf", "setting": "Annual bluegrass; .12 kg/ha", "result": 37, "unit": "%"}, {"measurement": "Suppression ratio relative to the biomass of the untreated group: Annual bluegrass 2 leaf", "setting": "Annual bluegrass; .12 kg/ha", "result": 35, "unit": "%"}, {"measurement": "Suppression ratio relative to the biomass of the untreated group: Annual bluegrass 3 leaf", "setting": "Annual bluegrass; .12 kg/ha", "result": 0, "unit": "%"}, {"measurement": "Suppression ratio relative to the biomass of the untreated group: Annual bluegrass 4 leaf", "setting": "Annual bluegrass; .12 kg/ha", "result": 0, "unit": "%"}, {"measurement": "Suppression ratio relative to the biomass of the untreated group: Annual bluegrass PRE", "setting": "Annual bluegrass; .12 kg/ha", "result": 95, "unit": "%"}, {"measurement": "Suppression ratio relative to the biomass of the untreated group: Annual bluegrass 1 leaf", "setting": "Annual bluegrass; .25 kg/ha", "result": 95, "unit": "%"}, {"measurement": "Suppression ratio relative to the biomass of the untreated group: Annual bluegrass 2 leaf", "setting": "Annual bluegrass; .25 kg/ha", "result": 82, "unit": "%"}, {"measurement": "Suppression ratio relative to the biomass of the untreated group: Annual bluegrass 3 leaf", "setting": "Annual bluegrass; .25 kg/ha", "result": 18, "unit": "%"}, {"measurement": "Suppression ratio relative to the biomass of the untreated group: Annual bluegrass 4 leaf", "setting": "Annual bluegrass; .25 kg/ha", "result": 2, "unit": "%"}, {"measurement": "Suppression ratio relative to the biomass of the untreated group: Annual bluegrass PRE", "setting": "Annual bluegrass; .25 kg/ha", "result": 100, "unit": "%"}, {"measurement": "Suppression ratio relative to the biomass of the untreated group: Annual bluegrass 1 leaf", "setting": "Annual bluegrass; .5 kg/ha", "result": 96, "unit": "%"}, {"measurement": "Suppression ratio relative to the biomass of the untreated group: Annual bluegrass 2 leaf", "setting": "Annual bluegrass; .5 kg/ha", "result": 90, "unit": "%"}, {"measurement": "Suppression ratio relative to the biomass of the untreated group: Annual bluegrass 3 leaf", "setting": "Annual bluegrass; .5 kg/ha", "result": 61, "unit": "%"}, {"measurement": "Suppression ratio relative to the biomass of the untreated group: Annual bluegrass 4 leaf", "setting": "Annual bluegrass; .5 kg/ha", "result": 37, "unit": "%"}, {"measurement": "Suppression ratio relative to the biomass of the untreated group: Annual bluegrass PRE", "setting": "Annual bluegrass; .5 kg/ha", "result": 100, "unit": "%"}, {"measurement": "Suppression of annual bluegrass", "setting": "Annual bluegrass; PRE to 2-leaf stage, 0.5 kg/ha or above", "result": "≥ 90", "unit": "%"}, {"measurement": "Control of annual bluegrass (in words)", "setting": "Annual bluegrass; over three-leaf stage", "result": "suppressed but were not completely controlled"}, {"measurement": "Control of gramineous weeds (in words)", "setting": "[1]; post-emergence treatment at three-leaf stage, FIG. 2", "result": "well controlled"}, {"measurement": "Control of gramineous weeds (in words)", "setting": "[1]; post-emergence treatment, 500 g/ha", "result": "most of the gramineous weeds were controlled"}, {"measurement": "Control of gramineous weeds (in words)", "setting": "[1]; pre-emergence treatment, 125 g/ha or more, FIG. 1", "result": "remarkable effect of controlling all of the gramineous weeds; also recorded: effectively controlled"}, {"measurement": "Visible injury to turfgrasses (in words)", "setting": "turfgrasses", "result": "did not show any visible injury"}]}]}
